Drawing on patent US9540323B2 (BRISTOL-MYERS SQUIBB COMPANY, priority 2012, dated 2017), this text covers Ki and IC50 for 27 compounds.

Assay [1] addresses cloned human P2Y1 receptors (Homo sapiens (Human), UniProt P47900). Kind of assay: Binding Assay B - Scintillation Proximity Assay (SPA) for P2Y1 binding, [33P] 2MeS-ADP. The conditions noted are these: SPA, 0.3 nM [33P] 2MeS-ADP, Cheng-Prusoff; read-out: P2Y1 Ki (nM) using binding assay B. The protocol:
Binding Assay B—Scintillation Proximity Assay (SPA) for P2Y1 Binding
A SPA membrane binding assay was used to identify inhibitors of [^33P] […] Reactions were allowed to proceed to completion at room temperature for 1 hour followed by centrifugation of the plate for 5 min. About 40 μL of the aqueous solution was aspirated. Plates were sealed and the [^33P]
In general terms: Scintillation proximity formats need no separation of bound from free tracer.

Assay [2] relates to human platelet rich plasma (PRP). Kind of assay: ADP induced platelet aggregation assay. The conditions noted are these: Homo sapiens, Platelet, 5 min, read-out: PA IC50 (μM) @ 10 μM ADP, human PRP, 10 μM ADP, AUC at 5 minute.
Procedure: The ability of P2Y1 antagonists covered in the present invention to inhibit platelet aggregation induced by 10 μM ADP was tested using human platelet rich plasma (PRP) as described in Platelet Protocols: Research and Clinical Laboratory Procedures (White, M. M. et al., Academic Press (1999)). Human blood was collected in 30 μM (final concentration in blood) argatroban (GSK) as the anticoagulant at a ratio of 1 mL per 9 mL of blood. The PRP was isolated by centrifugation at 170 g for 12 minutes. The platelet poor plasma (PPP) was used as the blank for optical aggregometry. Compounds of the present invention in DMSO solution was preincubated with 250 μL PRP at 37° C. for 1 minute with stirring speed of 1000 rpm. Aggregation was initiated by addition of 2.5 μL of 1 mM ADP (Chrono-log, Havertown, Pa.) for a final ADP concentration of 10 μM. Platelet aggregation was monitored using Optical Aggregometer (Chrono-log, Havertown, Pa.) and the area under the curve (AUC) at 5 minute was measured. IC50 was calculated using vehicle control as 0% inhibition.

cloned human P2Y1 receptors, sequence (P47900 whole entry): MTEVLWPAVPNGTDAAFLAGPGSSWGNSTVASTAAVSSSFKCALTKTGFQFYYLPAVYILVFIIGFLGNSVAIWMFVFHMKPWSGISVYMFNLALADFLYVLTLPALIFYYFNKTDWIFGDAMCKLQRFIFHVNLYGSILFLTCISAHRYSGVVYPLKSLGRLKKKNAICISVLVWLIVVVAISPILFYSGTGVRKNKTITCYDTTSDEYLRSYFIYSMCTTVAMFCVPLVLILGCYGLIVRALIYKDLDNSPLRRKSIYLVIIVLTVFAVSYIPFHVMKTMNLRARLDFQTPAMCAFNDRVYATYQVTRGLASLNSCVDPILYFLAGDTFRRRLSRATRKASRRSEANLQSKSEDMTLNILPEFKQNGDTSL

As a reminder, the Ki is a measure of affinity in units of concentration, obtained from inhibition or displacement. One may read the IC50 as the midpoint of a concentration-inhibition curve. For `CC1(C)CN(c2ccccc2NC(=O)Nc2csc(Cl)n2)c2c(O)ccc(Cl)c21` [Example 58, 1-(2-(4-Chloro-7-hydroxy-3,3-dimethylindolin-1-yl)phenyl)-3-(2-chlorothiazol-4-yl)urea], in assay [1], the Ki is 4.1 nM. Also, in assay [2], the IC50 was 0.32 µM.
The like results for `CC1(C)CN(c2ccccc2NC(=O)Nc2nc3ccc(Cl)nc3s2)c2c(O)cc(F)c(-c3nc4cc(F)ccc4s3)c21` [Example 153, 1-(5-Chlorothiazolo[5,4-b]pyridin-2-yl)-3-(2-(5-fluoro-4-(5-fluorobenzo[d]thiazol-2-yl)-7-hydroxy-3,3-dimethylindolin-1-yl)phenyl)urea] were, in that order, 15.4 nM and 0.23 µM.
The like results for `COc1ccc2nc(NC(=O)Nc3ccccc3N3CC(C)(C)c4c(-c5nc6ccc(F)cc6s5)c(F)cc(O)c43)sc2c1` [Example 179, 1-(2-(5-Fluoro-4-(6-fluorobenzo[d]thiazol-2-yl)-7-hydroxy-3,3-dimethylindolin-1-yl)phenyl)-3-(6-methoxybenzo[d]thiazol-2-yl)urea] were, in that order, 22.6 nM and 0.49 µM.
Consider `CC(C)CCn1cc(-c2c(F)cc(O)c3c2C(C)(C)CN3c2ccccc2NC(=O)Nc2ccc(OC(F)(F)F)cc2)cn1` [Example 185, 1-(2-(5-Fluoro-7-hydroxy-4-(1-isopentyl-1H-pyrazol-4-yl)-3,3-dimethylindolin-1-yl)phenyl)-3-(4-(trifluoromethoxy)phenyl)urea], for which, in assay [1], the Ki stood at 13.3 nM. In addition, the IC50 in assay [2] is 0.16 µM.
The like results for `CC1(C)CN(c2ccccc2NC(=O)Nc2ccc(OC(F)(F)F)cc2)c2c(O)ccc(-c3cnc(Cl)cn3)c21` [Example 131, 1-(2-(4-(5-Chloropyrazin-2-yl)-7-hydroxy-3,3-dimethylindolin-1-yl)phenyl)-3-(4-(trifluoromethoxy)phenyl)urea] were, in that order, 9.1 nM and 0.42 µM.
On the same counts, the results for `CC1(C)CN(c2ccccc2NC(=O)Nc2ccc(OC(F)(F)F)cc2)c2c(O)cc(F)c(-c3cccc(C#N)c3)c21` [Example 247, 1-(2-(4-(3-Cyanophenyl)-5-fluoro-7-hydroxy-3,3-dimethylindolin-1-yl)phenyl)-3-(4-(trifluoromethoxy)phenyl)urea] are 10 nM and 0.87 µM.
As for `CC1(C)CN(c2ccccc2NC(=O)Nc2ccc(OC(F)(F)F)cc2)c2ccccc21` [Comparator 2, reference compound], the Ki in assay [1] is 8.7 nM. The IC50 in assay [2] is greater than 20 µM.
The like results for `CCC1(CC)CN(c2ccccc2NC(=O)Nc2nc3c(s2)CN(CC(C)C)CC3)c2c(O)ccc(Cl)c21` [Example 54, 1-(2-(4-Chloro-3,3-diethyl-7-hydroxyindolin-1-yl)phenyl)-3-(5-isobutyl-4,5,6,7-tetrahydrothiazolo[5,4-c]pyridin-2-yl)urea] were, in that order, 13.3 nM and 0.15 µM.
On the same counts, the results for `Cc1cc(-c2c(F)cc(O)c3c2C(C)(C)CN3c2ccccc2NC(=O)Nc2ccc(OC(F)(F)F)cc2)cnc1F` [Example 192, 1-(2-(5-Fluoro-4-(6-fluoro-5-methylpyridin-3-yl)-7-hydroxy-3,3-dimethylindolin-1-yl)phenyl)-3-(4-(trifluoromethoxy)phenyl)urea] are 8.8 nM and 0.26 µM.
The like results for `CC(C)(C)CN1CCc2nc(NC(=O)Nc3ccccc3N3CC(C)(C)c4c(C(F)(F)F)ccc(O)c43)sc2C1` [Example 22, 1-(2-(7-Hydroxy-3,3-dimethyl-4-(trifluoromethyl)indolin-1-yl)phenyl)-3-(5-neopentyl-4,5,6,7-tetrahydrothiazolo[5,4-c]pyridin-2-yl)urea] were, in that order, 8 nM and 0.21 µM.
With `CC1(C)CN(c2ccccc2NC(=O)Nc2nc3ccc(Cl)cc3s2)c2c(O)cc(F)c(-c3ccc(Cl)cc3)c21` [Example 225, 1-(6-Chlorobenzo[d]thiazol-2-yl)-3-(2-(4-(4-chlorophenyl)-5-fluoro-7-hydroxy-3,3-dimethylindolin-1-yl)phenyl)urea], in assay [1], the Ki was found to be 34.7 nM. Also, the IC50 in assay [2] worked out at 0.36 µM.
Take `CC(C)(C)c1nc(-c2c(F)cc(O)c3c2C(C)(C)CN3c2ccccc2NC(=O)Nc2ccc(OC(F)(F)F)cc2)co1` [Example 259, 1-(2-(4-(2-(tert-Butyl)oxazol-4-yl)-5-fluoro-7-hydroxy-3,3-dimethylindolin-1-yl)phenyl)-3-(4-(trifluoromethoxy)phenyl)urea]: the Ki in assay [1] amounted to 46.3 nM. Moreover, the IC50 in assay [2] was 0.58 µM.
On the same counts, the results for `CC1(C)CN(c2ccccc2NC(=O)Nc2nc3ccc(F)nc3s2)c2c(O)cc(F)c(-c3nc4cc(Cl)ccc4s3)c21` [Example 157, 1-(2-(4-(5-Chlorobenzo[d]thiazol-2-yl)-5-fluoro-7-hydroxy-3,3-dimethylindolin-1-yl)phenyl)-3-(5-fluorothiazolo[5,4-b]pyridin-2-yl)urea] are 18.7 nM and 0.28 µM.
As for `CC1(C)CN(c2ccccc2NC(=O)Nc2ccc(OC(F)(F)F)cc2)c2c(O)ccc(-c3cnccn3)c21` [Example 132, 1-(2-(7-Hydroxy-3,3-dimethyl-4-(pyrazin-2-yl)indolin-1-yl)phenyl)-3-(4-(trifluoromethoxy)phenyl)urea], the Ki in assay [1] was determined as 18.8 nM. Also, the IC50 in assay [2] worked out at 1.29 µM.
On the same counts, the results for `CC1(C)CN(c2ccccc2NC(=O)Nc2ccc(OC(F)(F)F)cc2)c2c(O)ccc(-c3ccc(F)cc3)c21` [Example 193, 1-(2-(4-(4-Fluorophenyl)-7-hydroxy-3,3-dimethylindolin-1-yl)phenyl)-3-(4-(trifluoromethoxy)phenyl)urea] are 6.9 nM and 0.12 µM.
On to `Cc1nc(NC(=O)Nc2ccccc2N2CC(C)(C)c3c(-c4ccc(F)cc4)ccc(O)c32)cs1` [Example 201, 1-(2-(4-(4-Fluorophenyl)-7-hydroxy-3,3-dimethylindolin-1-yl)phenyl)-3-(2-methylthiazol-4-yl)urea], for which the Ki in assay [1] turned out to be 5.8 nM. Further, the IC50 in assay [2] is 0.43 µM.
On the same counts, the results for `CCC1(CC)CN(c2ccccc2NC(=O)Nc2ccc(C3CCN(CC(C)(C)C)CC3)cc2)c2c(O)ccc(C#N)c21` [Example 45, 1-(2-(4-Cyano-3,3-diethyl-7-hydroxyindolin-1-yl)phenyl)-3-(4-(1-neopentylpiperidin-4-yl)phenyl)urea] are 6.7 nM and 0.39 µM.
On the same counts, the results for `CCC1(CC)CN(c2ccccc2NC(=O)Nc2ccc(C3CCN(CC(C)C)CC3)cc2)c2c(O)ccc(C#N)c21` [Example 46, 1-(2-(4-Cyano-3,3-diethyl-7-hydroxyindolin-1-yl)phenyl)-3-(4-(1-isobutylpiperidin-4-yl)phenyl)urea] are 9.5 nM and 1 µM.
On the same counts, the results for `CC1(C)CN(c2ccccc2NC(=O)Nc2nc3ccc(Cl)cc3s2)c2c(O)cc(F)c(Br)c21` [Example 70, 1-(2-(4-Bromo-5-fluoro-7-hydroxy-3,3-dimethylindolin-1-yl)phenyl)-3-(6-chlorobenzo[d]thiazol-2-yl)urea] are 31.3 nM and 0.78 µM.
Turning to `Cc1nnc(-c2ccc(O)c3c2C(C)(C)CN3c2ccccc2NC(=O)Nc2ccc(OC(F)(F)F)cc2)o1` [Example 86, 1-(2-(7-Hydroxy-3,3-dimethyl-4-(5-methyl-1,3,4-oxadiazol-2-yl)indolin-1-yl)phenyl)-3-(4-(trifluoromethoxy)phenyl)urea], the Ki in assay [1] was 22.2 nM. Moreover, the IC50 in assay [2] stood at 5 µM.
On the same counts, the results for `CC1(C)CN(c2ccccc2NC(=O)Nc2csc(Cl)n2)c2c(O)ccc(-c3ccc(F)cc3)c21` [Example 198, 1-(2-Chlorothiazol-4-yl)-3-(2-(4-(4-fluorophenyl)-7-hydroxy-3,3-dimethylindolin-1-yl)phenyl)urea] are 4.9 nM and 0.09 µM.
On the same counts, the results for `CCOC(=O)C1(C)CN(c2ccccc2NC(=O)Nc2nc3ccc(Cl)nc3s2)c2c(O)ccc(Cl)c21` (stereo not drawn) [Example 77, Ethyl 4-chloro-1-(2-(3-(5-chlorothiazolo[5,4-b]pyridin-2-yl)ureido)phenyl)-7-hydroxy-3-methylindoline-3-carboxylate] are 12.9 nM and 0.61 µM.
With `CC1(C)CN(c2cc(F)ccc2NC(=O)Nc2ccc(F)cc2F)c2c(O)ccc(C(F)(F)F)c21` [Example 59, 1-(2,4-Difluorophenyl)-3-(4-fluoro-2-(7-hydroxy-3,3-dimethyl-4-(trifluoromethyl)indolin-1-yl)phenyl)urea], the Ki in assay [1] came to 5.7 nM. Also, the IC50 in assay [2] amounted to 0.24 µM.
The like results for `CCC1(CC)CN(c2ccccc2NC(=O)Nc2ccc(OC(F)(F)F)cc2)c2c(O)ccc(C=O)c21` [Example 73, 1-(2-(3,3-Diethyl-4-formyl-7-hydroxyindolin-1-yl)phenyl)-3-(4-(trifluoromethoxy)phenyl)urea] were, in that order, 4.5 nM and 0.9 µM.
As to `CCC1(CC)CN(c2ccccc2NC(=O)Nc2ccc(OC(F)(F)F)cc2)c2c(O)cc(F)cc21` [Example 5, 1-(2-(3,3-Diethyl-5-fluoro-7-hydroxyindolin-1-yl)phenyl)-3-(4-(trifluoromethoxy)phenyl)urea], the Ki in assay [1] was determined as 16 nM. The IC50 in assay [2] is 1.05 µM.
On the same counts, the results for `CC1(C)CN(c2ccccc2NC(=O)Nc2nc3ccc(F)nc3s2)c2c(O)cc(F)c(-c3ccc(Cl)cc3)c21` [Example 227, 1-(2-(4-(4-Chlorophenyl)-5-fluoro-7-hydroxy-3,3-dimethylindolin-1-yl)phenyl)-3-(5-fluorothiazolo[5,4-b]pyridin-2-yl)urea] are 21.6 nM and 0.56 µM.
On the same counts, the results for `CCc1ccc(NC(=O)Nc2ccccc2N2CC(CC)(CC)c3c(F)ccc(O)c32)cc1` [Example 27, 1-(2-(3,3-Diethyl-4-fluoro-7-hydroxyindolin-1-yl)phenyl)-3-(4-ethylphenyl)urea] are 3.1 nM and 1.02 µM.
